Measurements: US20060046972A1, “Cytotoxic nucleoside analog compound 003 for treating cancer” (Parker Hughes Institute, priority 2004, published 2006)

Legend:
[1] = tested on: centrosomes isolated from an EBV-transformed B-lymphoblastoid cell line; test: Centrosomal regrowth assay of aster formation from isolated centrosomes; type: biochemical; conditions: 100 μM
Experimental: Centrosome isolation from an EBV-transformed B-lymphoblastoid cell line was performed following a slight modification of a literature procedure (See, for example, Moudjou and Bomens, 1994, Cell Biology: A Laboratory Handbook, p. 595. Academic Press, Inc, New York; and Cell Biology: A Laboratory Handbook, 1994).
Briefly, cells were grown to a density of 1×10^6 per ml. A total of 1×10^9 cells were treated for 1 hour with […] and […]. All subsequent procedures were performed at 4° C. Firstly, cells were transferred into sterile conical 50 ml tubes and sedimented at 1,200×g for 5 minutes. Cells were then washed twice with 50 ml of filtered tris buffered saline (10 mM Tris-HCl, pH 7.4, 150 mM NaCl, TBS) by gentle resuspension with a pasteur pipette and sedimented at 1,200×g for 5 minutes. Cells were next washed with 8% sucrose in ten times diluted TBS and sedimented at 1,200×g for 5 minutes. Cells were lysed with 100 ml of 1 mM Hepes lysis buffer (0.5% Nonidet-P40), 0.5mM MgCl2, 0.1% β-Mercaptoethanol, 1 mM PMSF, 100 μg/ml aprotinin, 1 μg/ml leupeptin and 1 μg/ml pepstatin), pH 7.2. The swollen nuclei were sedimented at 1,200×g for 10 minutes and the supernatant was filtered through a 70 μm nylon cell strainer. After the addition of 1M Hepes (10 mM final) and 5 μl of 10 mg/ml DNase (1 μg/ml final), the lysate was incubated for 30 minutes at 4° C. […]

MOLT-3, human T lymphoma = test: DNA flow cytometry of cell cycle arrest, MOLT-3; type: cell-based; conditions: 100 μM, 48 hour
Experimental: (§1) Exponentially growing tumor cells were cultured at 1×10^6 cells/ml in clonogenic medium (RPMI 1640 medium +1% penicillin/streptomycin +10% heat-inactivated fetal bovine serum, 2 mML-glutamine, and 10 mM Hepes buffer) in the presence or absence of 100 μM compound 003 for 48 hour at 37° C., 5% CO2. At 48 h, cells were washed two times in fresh clonogenic medium, trypsinized, fixed in ice cold ethanol and labeled with propidium iodide to quantify their DNA content, as described previously (See, for example, Navara, et al., 2001, Anticancer Drugs. 12:369). Quantitative DNA analysis was performed on a Becton Dickenson Calibur flow cytometer equipped with a Consort 40 computer using the COTFIT program, which includes CELLCY, a cell cycle distribution function that fits DNA content histograms and calculates-the percentages of cells in G, S, and GM phases of the cell cycle, as described, for example, in Uckun et al., 1996, J Biol Chem. 271, 6389.

DT40, chicken B lymphoma = test: DNA flow cytometry of cell cycle arrest, DT40; type: cell-based; conditions: 100 μM, 48 hour
Experimental: as §1

[2] = tested on: DAUDI, human Burkitt's lymphoma; test: DNA flow cytometry of cell cycle arrest, DAUDI; type: cell-based; conditions: 100 μM, 48 hour
Experimental: as §1

[3] = tested on: human pre-B acute lymphoblastic leukemia (NALM-6); test: DNA flow cytometry of cell cycle arrest, NALM-6; type: cell-based; conditions: 100 μM, 48 hour
Experimental: as §1

[4] = Stability in simulated gastric fluid; type: in vitro ADME
Experimental: Plasma samples, simulated gastric fluid and intestinal fluids (United State Pharmacopeia XXII methods) were separately spiked with COMPOUND 003 to yield final concentrations of 500 μM. Spiked samples were incubated at 37° C. At a predetermined time (5, 10, 15, 30 60 and 120 minutes), an aliquot (200 μl) of the spiked plasma sample was extracted as described above.

Compound: COC(=O)C(C)NP(=O)(OCC1OC(n2cc(C)c(=O)[nH]c2=O)CC1N=[N+]=[N-])Oc1ccc(OC)cc1 (stereo not shown) [Compound 003, 3′-azidothymidine 5′-[p-methoxyphenylmethoxyalaninyl phosphate]]
- nucleation of microtubules and aster growth from isolated centrosomes [1]: inhibited the ability of the centrosomes to nucleate and sufficiently grow microtubule asters
- cell cycle arrest (MOLT-3, human T lymphoma): caused G2 arrest
- cell cycle arrest (DT40, chicken B lymphoma): caused G2 arrest
- cell cycle arrest [2]: caused G2 arrest
- cell cycle arrest [3]: G2M cell cycle arrest
- decomposition product ([4]; gastric fluid): quickly decomposed to yield a intermediate product
- stability ([4]; simulated gastric fluid, 500 μM, 37° C.): unstable
